In assay [1] the target is T1, Mitogen-activated protein kinase kinase kinase 5 (Homo sapiens, UniProt Q99683).
T1 sequence (Q99683 whole entry): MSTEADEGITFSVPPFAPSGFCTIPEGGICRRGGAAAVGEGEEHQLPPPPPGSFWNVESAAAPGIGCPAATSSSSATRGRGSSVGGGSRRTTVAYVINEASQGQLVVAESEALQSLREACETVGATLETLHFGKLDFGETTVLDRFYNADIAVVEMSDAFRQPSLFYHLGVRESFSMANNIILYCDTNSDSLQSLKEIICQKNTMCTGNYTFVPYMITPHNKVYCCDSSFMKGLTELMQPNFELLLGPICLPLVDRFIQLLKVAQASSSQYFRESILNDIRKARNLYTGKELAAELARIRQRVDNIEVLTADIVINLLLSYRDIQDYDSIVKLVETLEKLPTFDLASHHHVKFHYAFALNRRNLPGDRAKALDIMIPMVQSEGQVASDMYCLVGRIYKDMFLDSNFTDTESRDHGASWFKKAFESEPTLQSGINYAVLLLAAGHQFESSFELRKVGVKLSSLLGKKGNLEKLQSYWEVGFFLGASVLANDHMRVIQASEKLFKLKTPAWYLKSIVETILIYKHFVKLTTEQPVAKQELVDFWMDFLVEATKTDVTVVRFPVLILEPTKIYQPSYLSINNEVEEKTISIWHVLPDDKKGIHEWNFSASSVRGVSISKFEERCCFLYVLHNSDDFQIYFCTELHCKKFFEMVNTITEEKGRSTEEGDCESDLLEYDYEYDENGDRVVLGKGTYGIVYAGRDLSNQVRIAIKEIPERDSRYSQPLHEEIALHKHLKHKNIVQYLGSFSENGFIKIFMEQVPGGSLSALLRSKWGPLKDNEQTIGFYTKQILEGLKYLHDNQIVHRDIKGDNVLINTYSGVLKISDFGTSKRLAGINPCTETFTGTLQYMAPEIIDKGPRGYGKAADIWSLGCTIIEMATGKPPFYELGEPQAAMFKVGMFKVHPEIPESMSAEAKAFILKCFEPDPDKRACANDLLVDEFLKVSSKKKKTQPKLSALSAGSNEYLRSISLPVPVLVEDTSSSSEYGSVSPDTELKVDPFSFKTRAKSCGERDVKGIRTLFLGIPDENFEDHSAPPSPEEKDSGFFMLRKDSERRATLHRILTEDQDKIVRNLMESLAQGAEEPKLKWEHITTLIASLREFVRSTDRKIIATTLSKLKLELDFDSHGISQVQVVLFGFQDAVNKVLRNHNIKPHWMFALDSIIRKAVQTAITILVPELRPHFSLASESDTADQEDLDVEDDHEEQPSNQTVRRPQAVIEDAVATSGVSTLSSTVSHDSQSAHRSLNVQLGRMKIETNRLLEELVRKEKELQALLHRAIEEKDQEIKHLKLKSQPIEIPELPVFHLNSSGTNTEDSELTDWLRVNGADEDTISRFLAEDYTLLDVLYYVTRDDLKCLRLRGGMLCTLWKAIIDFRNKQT
Nature of the assay: Inhibition of ASK1 (unknown origin).

A further assay relates to HepG2. Nature of the assay: Induction of cell cycle arrest in human HepG2 cells assessed as accumulation at S phase at 4 uM incubated for 24 hrs by propidium iodide staining based flow cytometry (reference value: 33.27%). The class given is functional. A general note: In flow cytometry, cells or beads pass a laser one at a time.
For assay [2], the target named is T2, Mitogen-activated protein kinase kinase kinase 6 (Homo sapiens, UniProt O95382).
T2 sequence (O95382 whole entry): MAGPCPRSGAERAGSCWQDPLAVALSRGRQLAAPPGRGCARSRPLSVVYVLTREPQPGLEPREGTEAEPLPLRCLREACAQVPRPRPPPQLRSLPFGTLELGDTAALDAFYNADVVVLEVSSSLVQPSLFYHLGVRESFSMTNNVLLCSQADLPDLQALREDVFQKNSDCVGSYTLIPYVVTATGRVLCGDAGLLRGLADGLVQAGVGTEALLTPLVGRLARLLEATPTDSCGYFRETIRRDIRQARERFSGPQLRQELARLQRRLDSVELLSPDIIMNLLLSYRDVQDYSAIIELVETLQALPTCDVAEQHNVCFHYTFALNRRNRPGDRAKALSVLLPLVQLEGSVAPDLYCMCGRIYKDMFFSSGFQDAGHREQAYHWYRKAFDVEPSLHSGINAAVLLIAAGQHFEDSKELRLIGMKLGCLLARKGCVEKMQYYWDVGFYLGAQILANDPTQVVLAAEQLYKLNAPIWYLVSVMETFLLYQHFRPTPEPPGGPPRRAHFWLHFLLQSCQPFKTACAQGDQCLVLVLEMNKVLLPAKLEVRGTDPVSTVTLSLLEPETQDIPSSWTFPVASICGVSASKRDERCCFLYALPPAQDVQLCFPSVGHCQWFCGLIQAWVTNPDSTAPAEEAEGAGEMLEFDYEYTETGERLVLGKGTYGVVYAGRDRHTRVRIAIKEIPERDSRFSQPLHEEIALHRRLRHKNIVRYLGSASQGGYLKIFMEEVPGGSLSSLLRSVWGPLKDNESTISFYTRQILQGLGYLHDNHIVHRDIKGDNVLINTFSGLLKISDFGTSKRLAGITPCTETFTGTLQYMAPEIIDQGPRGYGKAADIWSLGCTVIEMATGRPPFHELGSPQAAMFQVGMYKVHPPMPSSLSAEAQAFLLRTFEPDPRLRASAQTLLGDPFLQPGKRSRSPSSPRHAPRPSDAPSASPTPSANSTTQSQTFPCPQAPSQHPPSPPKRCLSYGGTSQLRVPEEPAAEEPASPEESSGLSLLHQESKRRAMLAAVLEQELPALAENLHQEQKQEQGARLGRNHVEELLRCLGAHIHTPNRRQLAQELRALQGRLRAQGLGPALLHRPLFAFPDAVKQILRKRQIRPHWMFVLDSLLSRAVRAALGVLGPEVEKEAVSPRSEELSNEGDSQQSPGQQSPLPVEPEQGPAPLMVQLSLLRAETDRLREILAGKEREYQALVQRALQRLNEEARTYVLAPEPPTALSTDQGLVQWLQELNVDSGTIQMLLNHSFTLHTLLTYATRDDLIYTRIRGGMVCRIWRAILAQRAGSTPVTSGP
Briefly: Inhibition of ASK2 (unknown origin).

As a reminder, the IC50 is the concentration that inhibits the measured activity by half. `C[C@H](CO)n1cnnc1-c1cccc(NC(=O)Nc2cc3ccccn3n2)n1`: the IC50 in assay [1] was 0.0338 µM; in assay [2], 5.29 µM. In addition, the Activity with HepG2 was 7.9%.

Source of the values: ChEMBL document CHEMBL4680251, “Discovery of a 2-pyridinyl urea-containing compound YD57 as a potent inhibitor of apoptosis signal-regulating kinase 1 (ASK1)” (Eur J Med Chem, 2020).
